Measured values published in PMC4032197 (Journal of Medicinal Chemistry, 2014).

Legend:
human EP2 receptors [1] = molecular target: T1, human EP2 receptors (Homo sapiens, UniProt P43116); conditions: for EP2 potency (in words): tested at 1 μM
[2] = mouse
human EP2 receptors [3] = molecular target: T1, human EP2 receptors; conditions: earlier study; cited from earlier work

T1 sequence (P43116 whole entry): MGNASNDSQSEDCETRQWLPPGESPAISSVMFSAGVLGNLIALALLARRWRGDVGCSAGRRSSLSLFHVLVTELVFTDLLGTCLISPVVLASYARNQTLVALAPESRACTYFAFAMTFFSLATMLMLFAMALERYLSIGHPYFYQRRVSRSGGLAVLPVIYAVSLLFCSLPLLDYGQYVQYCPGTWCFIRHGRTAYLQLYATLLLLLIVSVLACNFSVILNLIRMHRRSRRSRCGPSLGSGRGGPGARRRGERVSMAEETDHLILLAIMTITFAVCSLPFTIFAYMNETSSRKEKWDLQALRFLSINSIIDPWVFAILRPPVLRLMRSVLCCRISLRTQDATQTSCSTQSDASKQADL

SMILES	fold less EP2 potency in comparison to 5a (human EP2 receptors [1])	EP2 potency (in words) (human EP2 receptors [1])	further results
COc1ccc(/C=C/C(=O)NCCn2c(C(F)(F)F)cc3ccccc32)cc1 [5e]			fold less EP2 potency in comparison to 5d (human EP2 receptors [1]): 16 fold
Cc1cc(/C=C/C(=O)NCCn2c(C(F)(F)F)cc3ccccc32)cc(C)c1F [5f]			fold less EP2 potency in comparison to 5d (human EP2 receptors [1]): 16 fold
COc1cc(/C=C/C(=O)NCCc2c(C)oc3ccccc23)cc(OC)c1OC [5k]	138 fold		
COc1cc(/C=C/C(=O)NCc2c(C)[nH]c3ccccc23)cc(OC)c1OC [5s]		complete loss of potency	
COc1ccc(CCNC(=O)CCn2c(C)cc3ccccc32)cc1OC [5u]		killed EP2 potency	
COc1cc(C(N)CC(=O)NCCn2c(C)cc3ccccc32)cc(OC)c1OC (centres unmarked) [5w]	180 fold		
COC(=O)[C@H](Cc1c(C)[nH]c2ccccc12)NC(=O)/C=C/c1cc(OC)c(OC)c(OC)c1 [5y]		inactive	
Cc1cc2ccccc2n1CCNC(=O)/C=C/c1ccc(OCCO)c(OCCO)c1 [6a, (E)-3-(3,4-Bis(2-hydroxyethoxy)phenyl)-N-(2-(2-methyl-1H-indol-1-yl)ethyl)acrylamide]			in vivo plasma half-life [2]: more than an hour; brain penetration property ([2]; in vivo): poor
COc1cc(/C=C/C(=O)OCCn2c(C)cc3ccccc32)cc(OC)c1OC [6h]	about 140 fold		
Cc1cc2ccccc2n1CCNC(=O)C1CC1c1ccc(F)cc1 (centres unmarked) [6i]	100 fold		
COc1cc(/C=C/C(=O)NCCN2CCCCC2C)cc(OC)c1OC (centres unmarked) [6j]			EP2 activity (in words) (human EP2 receptors [3]): complete loss of activity
COc1ccc(/C=C/C(=O)NCCn2c(C)cc3ccccc32)cc1 [6q]	7 fold		
COc1cc(/C=C/C(=O)NCCc2n[nH]c3ccccc23)cc(OC)c1OC [6t]		completely lost EP2 potency	
